From US20240287029A1, “SULFONAMIDES, METHOD FOR PREPARATION THEREOF, AND USE THEREOF” (CHENGDU SHIBEIKANG BIOMEDICAL TECHNOLOGY CO., LTD., priority 2021, published 2024)
Marks after values point to notes of the source that are not given here.

Key:
[1] = test system: ammonia-induced coughs in mice; test: Mouse coughing test (concentrated ammonia induced cough); format: in vivo; settings: KM mice, 30 mg/kg intragastric; for Number of coughs: 30 min after administration; for Number of coughs / Number of coughs 60 min / Number of coughs 120 min: coughs within 3 min, group mean; for Number of coughs 60 min: 60 min after administration; for Number of coughs 120 min: 120 min after administration; for duration of cough-relieving action compared to Comparative Compound 1: 60 and 120 min
From the text: Healthy adult KM mice, half male and half female, 6 mice in each group, each weighing about 28-30 g.
Most of the animal coughing models reported in the literature use mechanical, chemical and electrical stimulation to stimulate the animal's nerves and receptors to trigger coughing. Based on the characteristics of the candidate compounds and the existing similar target compounds as a reference, the concentrated ammonia induction method was preliminarily selected to establish a coughing model in mice.
Preparation of 50% aqueous ammonia solution: 2.5 ml aqueous ammonia was dissolved in a 5 ml injection solution of 0.9% sodium chloride, and mixed well.
Preparation of solutions of the positive control and Comparative Compound 1: each of 9 mg positive control and 9 mg Comparative Compound 1 was weighed and dissolved in a 3 ml solution of 0.5% CMC-Na, and fully mixed, to obtain a 3 mg/ml solution.
Preparation of solutions of the compounds of Examples: 9 mg of the compound of each Example was dissolved in a 3 ml solution of 0.5% CMC-Na, and mixed thoroughly, to obtain a 3 mg/ml solution.
Grouping: Comparative Example 1 group, Positive control group, Example group, Model group. Six KM mice in each group were intragastrically given Comparative Compound 1 (30 mg/kg), the positive control (Gefapixant, purchased, 30 mg/kg), and an Example compound (30 mg/kg), and the model group was given an equal volume of 0.5% CMC-Na solution. 30 min, 60 min, or 120 min after administration, each mouse was placed in a 500 ml beaker, and a cotton ball (weight: 100±5 mg) containing 0.3 ml 50% aqueous ammonia was placed in the beaker. The number of typical coughs by the mouse within 3 min was observed (typical cough: contraction of the abdominal muscle or contraction of the chest, accompanied by wide opening of the mouth and a coughing sound).
• (1) Cough judgment criteria: Cough was judged by contraction of the abdominal muscle or contraction of the chest, accompanied by wide opening of the mouth and a coughing sound. • (2) The number of coughs by the mice within 3 min was recorded with a stop watch, and statistically analyzed with software. The data of each group were statistically expressed in mean±standard deviation, and one-way ANOVA between multiple groups was performed, P<0.05 for statistically significant difference.

[2] = target: T1, human P2X3 receptor (Homo sapiens, UniProt P56373); test: In vitro biological activity evaluation, P2X3 antagonist mode FLIPR assay with BZATP agonist
T1 sequence (P56373 1-397): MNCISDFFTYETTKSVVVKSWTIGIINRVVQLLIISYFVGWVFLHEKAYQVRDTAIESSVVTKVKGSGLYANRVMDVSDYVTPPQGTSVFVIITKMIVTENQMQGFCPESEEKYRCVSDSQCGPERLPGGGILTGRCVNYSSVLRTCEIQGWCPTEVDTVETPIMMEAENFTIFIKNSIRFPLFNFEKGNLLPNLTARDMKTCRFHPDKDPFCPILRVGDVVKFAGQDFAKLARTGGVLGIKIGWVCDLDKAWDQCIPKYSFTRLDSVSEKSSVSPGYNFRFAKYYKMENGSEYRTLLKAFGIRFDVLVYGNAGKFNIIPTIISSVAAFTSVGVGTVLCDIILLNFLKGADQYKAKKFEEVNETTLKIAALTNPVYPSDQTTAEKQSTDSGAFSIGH
From the text: A HEK293 cell line stably transfected with human P2X3 receptor was used.

[3] = test system: sense of taste of rats; test: Taste disorder test (quinine water / tap water two-bottle drinking); format: in vivo, SD rats; settings: 10 mg/kg intravenous; for effect on the sense of taste: quinine water/tap water ratio vs solvent group, in words; for Quinine water/tap water (%): SD rats, drinking 0 to 15 min after administration, 0.3 mM quinine
Protocol: Preparation of 0.3 mM quinine solution: 119.20 mg quinine hydrochloride was weighed and dissolved in 1,000 ml tap water, and mixed well.
Preparation of test sample solution: 40 mg of the test sample was weighed and added to an appropriate amount of DMSO and dissolved, then a solution of solubilizer HS-15 was added thereto and mixed well, and 16 ml saline was added, to obtain a solution of 2.5 mg/ml.
Animals and grouping: male SD rats each about 160 to 180 g, 10 rats per group, with similar average weight in each group, fed in separate cages.
Drinking habit training: the animals in each group were given normal drinking water for 30 minutes at 8:30 am and 4:30 pm every day, with water deprivation for the rest of the day, and trained for 5 days, wherein two bottles of water placed in the left and right positions respectively were renewed every day.
Administration: After water deprivation over the night before the experiment, on the next morning 4 mL/kg (10 mg/kg) of the test sample was injected intravenously in the tail vein of the rats in the test group, and 4 mL/kg (10 mg/kg) of 0.5% HS-15 was injected intravenously in the model group.
• (1) Drinking water measurement: after injection, the animals were put back to their original cages, and the measurement time of each group was in the window covering the Tmax of the drugs (the measurement time was from 0 min to 15 min after administration); in each cage a bottle of normal drinking water and a bottle of drinking water containing 0.3 mM quinine hydrochloride (Quinie) were placed, and the left and right positions of the two bottles in all cages were the same. The animals were allowed to drink freely for 15 min, and the volume of water consumed from the two bottles was measured separately, accurate to 0.1 ml. • (2) Statistical analysis of data: the volume of the consumed quinine bitter water and the volume of the consumed tap water were measured, the percentage of quinine water relative to tap water was calculated, and ANOVA was used to check whether there was a significant difference between the groups.

[4] = test system: refractory or unexplained chronic cough in adult patients; settings: cited from earlier work

IC50 [2]	effect on the sense of taste [3]	Quinine water/tap water (%) [3]	SMILES	Number of coughs [1]	Number of coughs 60 min [1]	Number of coughs 120 min [1]	cough relieving effect 120 min after administration ([1]; vs model group, in words)	duration of cough-relieving action compared to Comparative Compound 1 ([1]; in words)	primary endpoint ([4]; 15 mg twice daily)	24-hour cough frequency ([4]; 45 mg twice daily, Week 12 (COUGH-1) and Week 24 (COUGH-2), compared with placebo)	discontinuation due to adverse events ([4]; 45-mg group)	taste-related adverse events ([4]; 45-mg group)
< 10 nM	–	–	C[C@@H](Cn1c(=O)nc(Nc2ccc(Oc3ccccn3)cc2)n(Cc2ccc(Cl)cc2)c1=O)C(=O)O [Comparative Example 1, reference compound]	15.61**	22.29**	45.21	did not have an obvious cough relieving effect	–	–	–	–	–
< 10 nM	almost no effect	37.01%^Δ	C[C@@H](Cn1c(=O)nc(Nc2ccc(Oc3ccccn3)cc2)n(Cc2ccc(Cl)cc2)c1=O)C(=O)NS(C)(=O)=O [Example 1]	13.33**	18.37**	17.28**^Δ	–	significantly prolonged	–	–	–	–
< 10 nM	–	–	CCS(=O)(=O)NC(=O)[C@@H](C)Cn1c(=O)nc(Nc2ccc(Oc3ccccn3)cc2)n(Cc2ccc(Cl)cc2)c1=O [Example 2]	17.12**	–	–	–	–	–	–	–	–
< 10 nM	almost no effect	38.11%^Δ	C[C@@H](Cn1c(=O)nc(Nc2ccc(Oc3ccccn3)cc2)n(Cc2ccc(Cl)cc2)c1=O)C(=O)NS(=O)(=O)N(C)C [Example 3]	15.34**	16.98**	18.56**^Δ	–	significantly prolonged	–	–	–	–
10.1 to 100 nM	–	–	C[C@@H](Cn1c(=O)nc(Nc2ccc(Oc3ccccn3)cc2)n(Cc2ccc(Cl)cc2)c1=O)C(=O)NS(=O)(=O)C(F)(F)F [Example 4]	28.61*	–	–	–	–	–	–	–	–
< 10 nM	–	–	C[C@@H](Cn1c(=O)nc(Nc2ccc(Oc3ccccn3)cc2)n(Cc2ccc(Cl)cc2)c1=O)C(=O)NS(=O)(=O)N1CCCC1 [Example 5]	12.85**	16.25**	23.11**^Δ	–	significantly prolonged	–	–	–	–
< 10 nM	almost no effect	41.54%^Δ	CC(C)NS(=O)(=O)NC(=O)[C@@H](C)Cn1c(=O)nc(Nc2ccc(Oc3ccccn3)cc2)n(Cc2ccc(Cl)cc2)c1=O [Example 6]	20.60**	17.63**	28.78*^Δ	–	significantly prolonged	–	–	–	–
10.1 to 100 nM	–	–	C[C@@H](Cn1c(=O)nc(Nc2ccc(Oc3ccccn3)cc2)n(Cc2ccc(Cl)cc2)c1=O)C(=O)NS(=O)(=O)c1ccccc1 [Example 7]	28.66*	–	–	–	–	–	–	–	–
10.1 to 100 nM	–	–	C[C@@H](Cn1c(=O)nc(Nc2ccc(Oc3ccc(OC(F)F)cn3)cc2)n(Cc2ccc(Cl)cc2)c1=O)C(=O)NS(=O)(=O)c1ccc(F)cc1 [Example 8, (S)-3-(3-(4-chlorobenzyl)-4-(4-(5-(5-(difluoromethoxy)pyridin-2-yl)oxyphenyl)amino)-2,6-dioxo-3,6-dihydro-1,3,5-triazin-1(2H)-yl)-N-(4-(4-fluorophenyl)sulfonyl)-2-methylpropionamide]	29.83*	–	–	–	–	–	–	–	–
10.1 to 100 nM	–	–	Cc1ccc(S(=O)(=O)NC(=O)[C@@H](C)Cn2c(=O)nc(Nc3ccc(Oc4ccccn4)cc3)n(Cc3ccc(Cl)cc3)c2=O)cc1 [Example 9]	25.11*	–	–	–	–	–	–	–	–
< 10 nM	–	–	CNS(=O)(=O)NC(=O)[C@@H](C)Cn1c(=O)nc(Nc2ccc(Oc3ccc(Cl)cn3)cc2)n(Cc2ccc(Cl)cc2)c1=O [Example 10]	20.27**	20.33**	24.13**^Δ	–	significantly prolonged	–	–	–	–
< 10 nM	almost no effect	37.12%^Δ	CC(C)(Cn1c(=O)nc(Nc2ccc(Oc3ccccn3)cc2)n(Cc2ccc(Cl)cc2)c1=O)C(=O)NS(C)(=O)=O [Example 11]	17.62**	16.68**	18.90**^Δ	–	significantly prolonged	–	–	–	–
< 10 nM	almost no effect	39.39%^Δ	CS(=O)(=O)NC(=O)C1(Cn2c(=O)nc(Nc3ccc(Oc4ccccn4)cc3)n(Cc3ccc(Cl)cc3)c2=O)CC1 [Example 12]	19.39**	20.17**	24.14**^Δ	–	significantly prolonged	–	–	–	–
–	–	79.01%**	COc1cc(C(C)C)c(Oc2cnc(N)nc2N)cc1S(N)(=O)=O [Positive control, Gefapixant]	20.51**	–	–	–	–	did not meet the primary endpoint	statistically significant reduction	higher frequency	higher incidence
